Test: photoluminescence quantum yield (fraction); solvent given as SMILES

SMILES: CCC1=C(C)C2=C(C)c3c(I)c(I)cn3[B-](F)(F)[N+]2=C1C
- photoluminescence quantum yield (in C1CCCCC1): 0.05
- photoluminescence quantum yield (in CC(C)=O): 0.024
- photoluminescence quantum yield (in CCO): 0.021
- photoluminescence quantum yield (in CCOC(C)=O): 0.031
- photoluminescence quantum yield (in CO): 0.02
- photoluminescence quantum yield (in OCC(F)(F)F): 0.019

SMILES: c1ccc2c(c1)-c1ccccc1[Si]21c2ccccc2-c2cc3c(cc21)-c1ccccc1[Si]31c2ccccc2-c2ccccc21
- photoluminescence quantum yield (in ClCCl): 0.59

SMILES: Cc1ccc(/C2=c3\cc/c(o3)=C(\c3ccc(C)cc3)c3ccc([nH]3)-c3ccc4n3[P-](=O)(=O)[N+]3=C(C=CC3=C4c3ccco3)c3ccc2[nH]3)cc1
- photoluminescence quantum yield (in ClC(Cl)Cl): 0.09

SMILES: CCC1(CC)c2cc(C#Cc3cc(C#Cc4ccc5c(c4)C(CC)(CC)c4cc(N(c6ccccc6)c6ccccc6)ccc4-5)c4ccc5c(C#Cc6ccc7c(c6)C(CC)(CC)c6cc(N(c8ccccc8)c8ccccc8)ccc6-7)cc(C#Cc6ccc7c(c6)C(CC)(CC)c6cc(N(c8ccccc8)c8ccccc8)ccc6-7)c6ccc3c4c65)ccc2-c2ccc(N(c3ccccc3)c3ccccc3)cc21
- photoluminescence quantum yield (in Cc1ccccc1): 0.43

SMILES: F[B-]1(F)n2c(c3cc4ccccc4cc3c2-c2ccccc2)C=C2c3cc4ccccc4cc3C(c3ccccc3)=[N+]21
- photoluminescence quantum yield (in C1CCOC1): 0.16
- photoluminescence quantum yield (in CN(C)C=O): 0.14
- photoluminescence quantum yield (in ClCCl): 0.16
- photoluminescence quantum yield (in c1ccccc1): 0.21

SMILES: N#Cc1ccc(C2=Cc3cc4ccccc4cc3P2(=O)c2ccccc2)cc1 (stereo not drawn)
- photoluminescence quantum yield (in ClCCl): 0.54

SMILES: O=[N+]([O-])c1ccc(/C=C/c2c[nH]c3ccccc23)cc1
- photoluminescence quantum yield (in CC#N): 0.009
- photoluminescence quantum yield (in CCCCCCC): 0.051
- photoluminescence quantum yield (in CO): 0.003
- photoluminescence quantum yield (in O): 0.024

SMILES: CCNc1cc2c(cc1C)C(c1ccccc1C(=O)O)=C1CCCC(/C=C/C3=[N+](C)c4ccccc4C3(C)C)=C1O2
- photoluminescence quantum yield (in CC#N): 0.32
- photoluminescence quantum yield (in CCO): 0.56
- photoluminescence quantum yield (in CO): 0.55
- photoluminescence quantum yield (in ClC(Cl)Cl): 0.54

SMILES: COc1cc2oc(=O)c3c4ccc(C=O)cc4c4ccc5cccc6c(c1)c2c3c4c56
- photoluminescence quantum yield (in C1CCOC1): 0.459

SMILES: CC1=[N+]2C(=c3c4c5ccccc5cc5cccc(c6cc(C)n(c36)[B-]2(F)F)c54)C=C1
- photoluminescence quantum yield (in C1CCOC1): 0.48
- photoluminescence quantum yield (in CCCCCC): 0.48
- photoluminescence quantum yield (in CO): 0.1
- photoluminescence quantum yield (in CS(C)=O): 0.03
- photoluminescence quantum yield (in ClC(Cl)Cl): 0.4
- photoluminescence quantum yield (in ClCCl): 0.45

SMILES: CC(C)(C)c1ccc2c(c1)c1cc(C(C)(C)C)ccc1n2-c1cc(C(=O)c2ccccc2)cc(-n2c3ccc(C(C)(C)C)cc3c3cc(C(C)(C)C)ccc32)c1
- photoluminescence quantum yield (in Cc1ccccc1): 0.073
- photoluminescence quantum yield (in c1cc(-c2cccc(-n3c4ccccc4c4ccccc43)c2)cc(-n2c3ccccc3c3ccccc32)c1): 0.75

SMILES: CC1=CC(C)=[N+]2C1=C(c1ccc(N(C)C)cc1)c1c(C)cc(C)n1[B-]2(F)F
- photoluminescence quantum yield (in C1CCOC1): 0.014
- photoluminescence quantum yield (in CC#N): 0.005
- photoluminescence quantum yield (in CC(=O)C(C)(C)C): 0.015
- photoluminescence quantum yield (in CC(C)=O): 0.009
- photoluminescence quantum yield (in CCCCCC): 0.441
- photoluminescence quantum yield (in CCOC(C)=O): 0.011

SMILES: Cc1ccc(C2=C3C=C4C(=[N+]3[B-](F)(F)n3c2cc2c3-c3ccccc3C23c2ccccc2-c2ccccc23)c2ccccc2C42c3ccccc3-c3ccccc32)cc1
- photoluminescence quantum yield (in C1CCOC1): 0.67

SMILES: Cc1cc(C)c(C2=C3C=CC4=[N+]3[B-]3(Oc5ccccc54)Oc4ccccc4-c4ccc2n43)c(C)c1 (stereo not drawn)
- photoluminescence quantum yield (in ClC(Cl)Cl): 0.72

SMILES: CCCC1(CCC)c2cc(-c3ccc4c(c3)C(CCC)(CCC)c3cc(C(C)(C)CC)ccc3-4)ccc2-c2ccc(-c3ccc4c(c3)C(CCC)(CCC)c3cc(C(C)(C)CC)ccc3-4)cc21
- photoluminescence quantum yield (in C1CCCCC1): 0.93

SMILES: CC1(C)CC(NCc2ccc3ccc4cccc5ccc2c3c45)CC(C)(C)N1
- photoluminescence quantum yield (in C1CCCCC1): 0.55
- photoluminescence quantum yield (in CC#N): 0.04
- photoluminescence quantum yield (in CO): 0.14
- photoluminescence quantum yield (in ClC(Cl)Cl): 0.08

SMILES: CCC1=C(C)C2=Cc3cc(I)c(I)n3[B-](F)(F)[N+]2=C1C
- photoluminescence quantum yield (in C1CCCCC1): 0.26
- photoluminescence quantum yield (in CC(C)=O): 0.16
- photoluminescence quantum yield (in CCO): 0.2
- photoluminescence quantum yield (in CCOC(C)=O): 0.19
- photoluminescence quantum yield (in CO): 0.17
- photoluminescence quantum yield (in OCC(F)(F)F): 0.12

SMILES: N#CC1=C(N)n2c(=O)c3ccccc3c(=O)n2C1c1cccs1 (stereo not drawn)
- photoluminescence quantum yield (in CS(C)=O): 0.08

SMILES: Cc1cccc2nc3c(=O)n(C)c(=O)nc-3n(C)c12
- photoluminescence quantum yield (in CC#N): 0.07

SMILES: CCCCn1c2ccc(C#N)cc2c2cc(C#N)cc(-c3ccc(N(c4ccccc4)c4ccccc4)cc3)c21
- photoluminescence quantum yield (in ClCCl): 0.65

SMILES: COCCOCCOCN1C(=O)c2ccc3c(-c4ccccc4)c4c5ccc6c7c(ccc(c(-c8ccccc8)c4c4ccc(c2c34)C1=O)c75)C(=O)N(COCCOCCOC)C6=O
- photoluminescence quantum yield (in ClCCl): 0.05

SMILES: CCCCCCOc1cc(/C=C/c2cc(OCCCCCC)c(/C=C/c3cc(OCCCCCC)c(C=O)cc3OCCCCCC)cc2OCCCCCC)c(OCCCCCC)cc1C=O
- photoluminescence quantum yield (in ClCCl): 0.52

SMILES: c1ccc(C2(c3ccccc3)c3ccc4ccc5ccccc5c4c3-c3c2ccc2ccc4ccccc4c32)cc1
- photoluminescence quantum yield (in ClCCl): 0.4

SMILES: O=c1oc2ccc3ccc(O)cc3c2nc1-c1ccccc1
- photoluminescence quantum yield (in c1ccccc1): 0.606

SMILES: CCCCC(CC)CN1C(=O)C2=C(c3ccc(-c4ccc(C5=C6C(C)=CC(C)=[N+]6[B-](F)(F)n6c(C)cc(C)c65)cc4)s3)N(CC(CC)CCCC)C(=O)C2=C1c1ccc(-c2ccc(C3=C4C(C)=CC(C)=[N+]4[B-](F)(F)n4c(C)cc(C)c43)cc2)s1 (stereo not drawn)
- photoluminescence quantum yield (in Cc1ccccc1): 0.45

SMILES: CCOC(=O)c1sc2nc(-c3ccccc3)c(C)c(C#N)c2c1N
- photoluminescence quantum yield (in C1COCCO1): 0.024
- photoluminescence quantum yield (in CC#N): 0.009
- photoluminescence quantum yield (in CCOC(C)=O): 0.027
- photoluminescence quantum yield (in ClC(Cl)Cl): 0.037
- photoluminescence quantum yield (in c1ccccc1): 0.047

SMILES: CN(C)c1ccc2c(c1)C(=O)c1ccccc1-2
- photoluminescence quantum yield (in C1CCCCC1): 0.0087
- photoluminescence quantum yield (in c1ccccc1): 0.0012

SMILES: CCCCC1C(=O)c2cc(Oc3ccc(C(C)(C)C)cc3)c3c4c(Oc5ccc(C(C)(C)C)cc5)cc5c6c(cc(Oc7ccc(C(C)(C)C)cc7)c(c7c(Oc8ccc(C(C)(C)C)cc8)cc(c2c37)C1=O)c64)C1=C(C5=O)c2ccc3ccccc3[n+]2[B-](F)(F)O1 (stereo not drawn)
- photoluminescence quantum yield (in ClCCl): 0.5

SMILES: CCCCN(CCCC)c1ccc(C#Cc2cc(C#Cc3ccc(C#N)cc3)c(C#Cc3ccc(C#N)cc3)cc2C#Cc2ccc(N(CCCC)CCCC)cc2)cc1
- photoluminescence quantum yield (in ClCCl): 0.26

SMILES: Cc1cc(N2c3ccccc3C(C)(C)c3ccccc32)ccc1-c1ncnc(-c2ccc(N3c4ccccc4C(C)(C)c4ccccc43)cc2C)c1C
- photoluminescence quantum yield (in O=P(c1ccccc1)(c1ccccc1)c1ccccc1Oc1ccccc1P(=O)(c1ccccc1)c1ccccc1): 0.47

SMILES: CC(C)(C)C1CCC(=CS/C=C/c2ccc(/C=C/SC=C3CCC(C(C)(C)C)CC3)cc2)CC1 (stereo not drawn)
- photoluminescence quantum yield (in ClCCl): 0.031

SMILES: Nc1cccc2c1C(=O)c1ccccc1-2
- photoluminescence quantum yield (in C1CCCCC1): 0.031
- photoluminescence quantum yield (in CC#N): 0.057
- photoluminescence quantum yield (in CCO): 0.068
- photoluminescence quantum yield (in c1ccccc1): 0.055

SMILES: COc1ccc(-c2ccc(/C=C/c3ccncn3)cc2)cc1
- photoluminescence quantum yield (in ClCCl): 0.14

SMILES: Cc1ccc(C2=C3C=CC([Te]c4ccccc4)=[N+]3[B-](F)(F)n3c([Te]c4ccccc4)ccc32)cc1
- photoluminescence quantum yield (in C1CCOC1): 0.01

SMILES: Cc1ccc(C#Cc2ccc3ccc(=O)oc3c2)cc1
- photoluminescence quantum yield (in CC#N): 0.016

SMILES: COc1cc(-c2cnc(-c3cnc4ccccc4c3)o2)cc(OC)c1OC
- photoluminescence quantum yield (in ClCCl): 0.76

SMILES: CCCCCCOc1cc(C=C2c3ccccc3-c3ccccc32)c(OCCCCCC)cc1C=C1c2ccccc2C=Cc2ccccc21
- photoluminescence quantum yield (in C1CCOC1): 0.0013

SMILES: CC(C)C1=c2c(c3[nH]cc(C(C)C)c3c3ccccc23)=[N+]2C1=Cc1c(C(C)C)c3c4ccccc4c4c(C(C)C)c[nH]c4c3n1[B-]2(F)F
- photoluminescence quantum yield (in ClC(Cl)Cl): 0.63

SMILES: C(=C\c1cc(/C=C/c2ccc(-n3c4ccccc4c4ccccc43)cc2)cc(/C=C/c2ccc(-n3c4ccccc4c4ccccc43)cc2)c1)/c1ccc(-n2c3ccccc3c3ccccc32)cc1
- photoluminescence quantum yield (in C1CCOC1): 0.8
- photoluminescence quantum yield (in CC#N): 0.83
- photoluminescence quantum yield (in Cc1ccccc1): 0.59
- photoluminescence quantum yield (in ClCCl): 0.75

SMILES: C[Si]1(C)c2ccc(-c3ccc(-c4cccs4)s3)cc2C=Cc2cc(-c3ccc(-c4cccs4)s3)ccc21
- photoluminescence quantum yield (in ClCCl): 0.1

SMILES: C[Si](C)(C)C#Cc1c2c(=O)c3ccccc3c2c(C#C[Si](C)(C)C)c2c(=O)c3ccccc3c12
- photoluminescence quantum yield (in ClC(Cl)Cl): 0.08

SMILES: CC1=CC(C)=[N+]2C1=C(c1ccc(I)cc1)c1c(C)cc(C)n1[B-]21Oc2ccccc2O1
- photoluminescence quantum yield (in ClC(Cl)Cl): 0

SMILES: CC1=CC(/C=C/c2ccc(C)cc2)=[N+]2C1=C(c1ccccc1)c1c(C)cc(/C=C/c3ccc(C)cc3)n1[B-]2(F)F
- photoluminescence quantum yield (in CC1CCCO1): 0.75

SMILES: CCOC(=O)c1cc(C(=O)OCC)c2cccc(O)c2n1
- photoluminescence quantum yield (in CCO): 0.17

SMILES: CC(=O)c1ccc(-c2cccc3ncc(-c4ccccc4)n23)cc1
- photoluminescence quantum yield (in ClCCl): 0.43

SMILES: CCOC(=O)/C=C/C1=C(c2ccc(C)cc2)C2=Nc3c(-c4ccc(C)cc4)cc(-c4ccc(C)cc4)n3[B-](F)(F)[N+]2=C1c1ccc(C)cc1
- photoluminescence quantum yield (in ClC(Cl)Cl): 0.24

SMILES: CC(C)(C)c1ccc(C2=CC3=C(c4ccccc4)c4cc(-c5ccc(C(C)(C)C)cc5)c(-c5ccc(C(C)(C)C)cc5)n4[B-](F)(F)[N+]3=C2c2ccc(C(C)(C)C)cc2)cc1
- photoluminescence quantum yield (in C1CCCCC1): 0.33
- photoluminescence quantum yield (in C1CCOC1): 0.28
- photoluminescence quantum yield (in CC#N): 0.29
- photoluminescence quantum yield (in Cc1ccccc1): 0.43
- photoluminescence quantum yield (in ClCCl): 0.3

SMILES: CN1/C(=C/C=C(/C=C/C2=[N+](C)c3ccccc3C2(C)C)c2ccc(C(F)(F)F)cc2)C(C)(C)c2ccccc21
- photoluminescence quantum yield (in CCO): 0.11
- photoluminescence quantum yield (in CO): 0.09
- photoluminescence quantum yield (in CS(C)=O): 0.23

SMILES: C[Si](C)(C)C#Cc1ccc(C#Cc2cnc(C#Cc3ccccc3)nc2)cc1
- photoluminescence quantum yield (in C1CCCCC1): 0.0085

SMILES: CCn1ncc2c3c(C#N)c4c5ccccc5n(C)c4nc3ccc21
- photoluminescence quantum yield (in CCOC(C)=O): 0.56

SMILES: O=C(c1sc(-c2ccc(-c3cc(-c4cccs4)c(C(=O)N4CCOCC4)s3)s2)cc1-c1cccs1)N1CCOCC1
- photoluminescence quantum yield (in ClCCl): 0.14

SMILES: CN(C)c1ccc2nc(-c3ccc(C(=O)OC[C@H](NC(=O)OC(C)(C)C)C(=O)OCc4ccccc4)cc3)sc2c1
- photoluminescence quantum yield (in C1CCCCC1): 0.86
- photoluminescence quantum yield (in CC#N): 0.94
- photoluminescence quantum yield (in CC(C)O): 0.9
- photoluminescence quantum yield (in CO): 0.68
- photoluminescence quantum yield (in CS(C)=O): 0.94
- photoluminescence quantum yield (in ClC(Cl)Cl): 0.98
- photoluminescence quantum yield (in c1ccccc1): 0.92

— the Deep4Chem optical property database
